Columns and labels:
Type in all cases: in vivo
Design in all cases: key: 5: completely killed; 4: seriously injured; 3: considerably injured; 2: somewhat injured; 1: slightly injured; 0: not injured (normally grown)
[1] = test system: onamomi (heartleaf cocklebur, Xanthium strumarium); experiment: Experiment 9 foliage treatment: onamomi; conditions: foliage spray of wettable powder suspension, evaluated 4 weeks after treatment
Description: (§1) Upon seedling stage (two- or three-leaved stage) of ichibi (velvetleaf, Abutilon theophrasti), onamomi (heartleaf cocklebur, Xanthium strumarium) (4L stage), noasagao (blue morningglory, Ipomoea indica) and ooinutade (pale smartweed, Persicaria lapathifolia) which were grown on a cultivated soil put in pots of 1/8850 ares, a selected compound obtained in a manner analogous to Example 14, in suspended wettable powder, was sprayed to each plant. After that, the pots were kept in a glass chamber to allow each plant to grow, and after the lapse of 4 weeks from the treatment with the selected compounds the herbicidal effects were evaluated. The evaluation of the herbicidal effects was similarly conducted as that of Experiment 1.

[2] = test system: rice; experiment: Experiment 8 foliage treatment: rice; conditions: foliage spray of wettable powder suspension, evaluated 4 weeks after treatment
Description: (§2) Upon seedling stage (two- or three-leaved stage) of rice, cockspur (Panicum crus-galli), garden radish, aobiyu (slender amaranth, Amaranthus viridis) and mehishiba (henry crabgrass, Digitaria cliaris) which were grown on a cultivated soil put in pots of 1/15500 ares, a selected compound obtained in a manner analogous to Example 14, in suspended wettable powder, was sprayed to each plant. After that, the pots were kept in a glass chamber to allow each plant to grow, and after the lapse of 4 weeks from the treatment with the selected compounds the herbicidal effects were evaluated. The evaluation of the herbicidal effects was similarly conducted as to that of Experiment 1.

[3] = test system: nobie (barnyardgrass, Echinochloa spp.); experiment: Experiment 7 flooded soil treatment: nobie; conditions: evaluated 4 weeks after treatment
Source text: (§3) Paddy soil (clay loam) was put into a pot so as to have a surface area of 1/15500 ares. Uniformly mixed seeds of several kinds of weeds, viz., nobie (barnyardgrass, Echinochloa spp.), broad-leaved weeds, hotarui (bulrush, Scirpus juncoides) and tamagayatsuri (small-flowered umbrellaplant, Cyperus difformis), were sown in the surface layer of the soil in each pot, and then paddy rice seedlings at the two- or three-leaved stage were transplanted into each pot to a depth of 2 cm, and water was fed into each pot so as to provide a 3 cm deep water layer on the soil surface. After 3 days, in other words at the initial stage of germination of nobie (barnyardgrass, Echinochloa spp.), a predetermined amount of a selected compound obtained in a manner analogous to Example 14 in the form of diluted aqueous solution was dropped into the water layer in each pot. After that, the pots were kept in a glass chamber to allow the paddy rice and the weeds to grow, and after the lapse of 4 weeks from the treatment with the selected compounds, the herbicidal effects and the degree of injury to the paddy rice were evaluated. The evaluation of the herbicidal effects was similarly conducted as that of Experiment 1.

[4] = test system: noasagao (blue morningglory, Ipomoea indica); experiment: Experiment 9 foliage treatment: noasagao; conditions: foliage spray of wettable powder suspension, evaluated 4 weeks after treatment
Description: as §1

[5] = test system: ooinutade (pale smartweed, Persicaria lapathifolia); experiment: Experiment 9 foliage treatment: ooinutade; conditions: foliage spray of wettable powder suspension, evaluated 4 weeks after treatment
Description: as §1

[6] = test system: hotarui (bulrush, Scirpus juncoides); experiment: Experiment 7 flooded soil treatment: hotarui; conditions: evaluated 4 weeks after treatment
Source text: as §3

[7] = test system: mehishiba (henry crabgrass, Digitaria cliaris); experiment: Experiment 8 foliage treatment: mehishiba; conditions: foliage spray of wettable powder suspension, evaluated 4 weeks after treatment
Description: as §2

[8] = test system: aobiyu (slender amaranth, Amaranthus viridis); experiment: Experiment 8 foliage treatment: aobiyu; conditions: foliage spray of wettable powder suspension, evaluated 4 weeks after treatment
Description: as §2

[9] = test system: paddy rice; experiment: Experiment 7 flooded soil treatment: injury to paddy rice; conditions: evaluated 4 weeks after treatment
Source text: as §3

[10] = test system: tamagayatsuri (small-flowered umbrellaplant, Cyperus difformis); experiment: Experiment 7 flooded soil treatment: tamagayatsuri; conditions: evaluated 4 weeks after treatment
Source text: as §3

[11] = test system: ichibi (velvetleaf, Abutilon theophrasti); experiment: Experiment 9 foliage treatment: ichibi; conditions: foliage spray of wettable powder suspension, evaluated 4 weeks after treatment
Description: as §1

[12] = test system: cockspur (Panicum crus-galli); experiment: Experiment 8 foliage treatment: cockspur; conditions: foliage spray of wettable powder suspension, evaluated 4 weeks after treatment
Description: as §2

[13] = test system: garden radish; experiment: Experiment 8 foliage treatment: garden radish; conditions: foliage spray of wettable powder suspension, evaluated 4 weeks after treatment
Description: as §2

[14] = test system: broad-leaved weeds; experiment: Experiment 7 flooded soil treatment: broad-leaved weeds; conditions: evaluated 4 weeks after treatment
Source text: as §3

SMILES: C#CC(C)Oc1cc(N(C(=O)C2=C(C(=O)OC)CCCC2)C(=O)c2cccs2)c(F)cc1Cl (racemic) [compound 91, N-[4-chloro-2-fluoro-5-(1-methylproparzyloxy)phenyl]-N-(2-thiophenecarboxy)-3,4,5,6-tetrahydrophthalamic acid methyl ester]
- Herbicidal Effet onamomi ([1]; 4 g/10a): 4
- Herbicidal Effet onamomi ([1]; 8 g/10a): 5
- Herbicidal Effect rice ([2]; 40 g/10a): 1
- Herbicidal Effect rice ([2]; 80 g/10a): 1
- Herbicidal Effect nobie ([3]; 6.25 g/10a): 5
- Herbicidal Effect nobie ([3]; 12.5 g/10a): 5
- Herbicidal Effet noasagao ([4]; 4 g/10a): 4
- Herbicidal Effet noasagao ([4]; 8 g/10a): 5
- Herbicidal Effet ooinutade ([5]; 4 g/10a): 5
- Herbicidal Effet ooinutade ([5]; 8 g/10a): 5
- Herbicidal Effect hotarui ([6]; 6.25 g/10a): 4
- Herbicidal Effect hotarui ([6]; 12.5 g/10a): 5
- Herbicidal Effect mehishiba ([7]; 40 g/10a): 1
- Herbicidal Effect mehishiba ([7]; 80 g/10a): 1
- Herbicidal Effect aobiyu ([8]; 40 g/10a): 5
- Herbicidal Effect aobiyu ([8]; 80 g/10a): 5
- Injury of Paddy ([9]; 6.25 g/10a): 0
- Injury of Paddy ([9]; 12.5 g/10a): 0.5
- Herbicidal Effect tamagayatsuri ([10]; 6.25 g/10a): 5
- Herbicidal Effect tamagayatsuri ([10]; 12.5 g/10a): 5
- Herbicidal Effet ichibi ([11]; 4 g/10a): 5
- Herbicidal Effet ichibi ([11]; 8 g/10a): 5
- Herbicidal Effect cockspur ([12]; 40 g/10a): 1
- Herbicidal Effect cockspur ([12]; 80 g/10a): 1
- Herbicidal Effect garden radish ([13]; 40 g/10a): 5
- Herbicidal Effect garden radish ([13]; 80 g/10a): 5
- Herbicidal Effect broad-leaved weed ([14]; 6.25 g/10a): 5
- Herbicidal Effect broad-leaved weed ([14]; 12.5 g/10a): 5

SMILES: C#CC(C)Oc1cc(N(C(=O)C2=C(C(=O)OC)CCCC2)C(=O)c2ccsc2)c(F)cc1Cl (stereo not shown) [Compound No. 100]
- Herbicidal Effet onamomi ([1]; 4 g/10a): 5
- Herbicidal Effet onamomi ([1]; 8 g/10a): 5
- Herbicidal Effect rice ([2]; 40 g/10a): 1
- Herbicidal Effect rice ([2]; 80 g/10a): 1
- Herbicidal Effect nobie ([3]; 6.25 g/10a): 5
- Herbicidal Effect nobie ([3]; 12.5 g/10a): 5
- Herbicidal Effet noasagao ([4]; 4 g/10a): 5
- Herbicidal Effet noasagao ([4]; 8 g/10a): 5
- Herbicidal Effet ooinutade ([5]; 4 g/10a): 5
- Herbicidal Effet ooinutade ([5]; 8 g/10a): 5
- Herbicidal Effect hotarui ([6]; 6.25 g/10a): 5
- Herbicidal Effect hotarui ([6]; 12.5 g/10a): 5
- Herbicidal Effect mehishiba ([7]; 40 g/10a): 1
- Herbicidal Effect mehishiba ([7]; 80 g/10a): 1
- Herbicidal Effect aobiyu ([8]; 40 g/10a): 5
- Herbicidal Effect aobiyu ([8]; 80 g/10a): 5
- Injury of Paddy ([9]; 6.25 g/10a): 0.5
- Injury of Paddy ([9]; 12.5 g/10a): 0.5
- Herbicidal Effect tamagayatsuri ([10]; 6.25 g/10a): 5
- Herbicidal Effect tamagayatsuri ([10]; 12.5 g/10a): 5
- Herbicidal Effet ichibi ([11]; 4 g/10a): 5
- Herbicidal Effet ichibi ([11]; 8 g/10a): 5
- Herbicidal Effect cockspur ([12]; 40 g/10a): 1
- Herbicidal Effect cockspur ([12]; 80 g/10a): 1
- Herbicidal Effect garden radish ([13]; 40 g/10a): 5
- Herbicidal Effect garden radish ([13]; 80 g/10a): 5
- Herbicidal Effect broad-leaved weed ([14]; 6.25 g/10a): 5
- Herbicidal Effect broad-leaved weed ([14]; 12.5 g/10a): 5

SMILES: C#CC(C)Oc1cc(N(C(=O)C2=C(C(=O)OC)CCCC2)C(=O)c2ccc(Cl)s2)c(F)cc1Cl (stereo not shown) [compound 97]
- Herbicidal Effet onamomi ([1]; 4 g/10a): 4
- Herbicidal Effet onamomi ([1]; 8 g/10a): 4
- Herbicidal Effect rice ([2]; 40 g/10a): 1
- Herbicidal Effect rice ([2]; 80 g/10a): 1
- Herbicidal Effect nobie ([3]; 6.25 g/10a): 5
- Herbicidal Effect nobie ([3]; 12.5 g/10a): 5
- Herbicidal Effet noasagao ([4]; 4 g/10a): 4
- Herbicidal Effet noasagao ([4]; 8 g/10a): 4
- Herbicidal Effet ooinutade ([5]; 4 g/10a): 4
- Herbicidal Effet ooinutade ([5]; 8 g/10a): 5
- Herbicidal Effect hotarui ([6]; 6.25 g/10a): 4
- Herbicidal Effect hotarui ([6]; 12.5 g/10a): 4
- Herbicidal Effect mehishiba ([7]; 40 g/10a): 1
- Herbicidal Effect mehishiba ([7]; 80 g/10a): 1
- Herbicidal Effect aobiyu ([8]; 40 g/10a): 4
- Herbicidal Effect aobiyu ([8]; 80 g/10a): 5
- Injury of Paddy ([9]; 6.25 g/10a): 0
- Injury of Paddy ([9]; 12.5 g/10a): 0
- Herbicidal Effect tamagayatsuri ([10]; 6.25 g/10a): 4
- Herbicidal Effect tamagayatsuri ([10]; 12.5 g/10a): 4
- Herbicidal Effet ichibi ([11]; 4 g/10a): 5
- Herbicidal Effet ichibi ([11]; 8 g/10a): 5
- Herbicidal Effect cockspur ([12]; 40 g/10a): 1
- Herbicidal Effect cockspur ([12]; 80 g/10a): 1
- Herbicidal Effect garden radish ([13]; 40 g/10a): 5
- Herbicidal Effect garden radish ([13]; 80 g/10a): 5
- Herbicidal Effect broad-leaved weed ([14]; 6.25 g/10a): 5
- Herbicidal Effect broad-leaved weed ([14]; 12.5 g/10a): 5

SMILES: C#CC(C)Oc1cc(N(C(=O)C2=C(C(=O)OCCCC)CCCC2)C(=O)c2ccsc2)c(F)cc1Cl (stereo not shown) [compound 102]
- Herbicidal Effet onamomi ([1]; 4 g/10a): 5
- Herbicidal Effet onamomi ([1]; 8 g/10a): 5
- Herbicidal Effect rice ([2]; 40 g/10a): 1
- Herbicidal Effect rice ([2]; 80 g/10a): 1
- Herbicidal Effect nobie ([3]; 6.25 g/10a): 5
- Herbicidal Effect nobie ([3]; 12.5 g/10a): 5
- Herbicidal Effet noasagao ([4]; 4 g/10a): 4
- Herbicidal Effet noasagao ([4]; 8 g/10a): 5
- Herbicidal Effet ooinutade ([5]; 4 g/10a): 4
- Herbicidal Effet ooinutade ([5]; 8 g/10a): 5
- Herbicidal Effect hotarui ([6]; 6.25 g/10a): 4
- Herbicidal Effect hotarui ([6]; 12.5 g/10a): 4
- Herbicidal Effect mehishiba ([7]; 40 g/10a): 1
- Herbicidal Effect mehishiba ([7]; 80 g/10a): 1
- Herbicidal Effect aobiyu ([8]; 40 g/10a): 5
- Herbicidal Effect aobiyu ([8]; 80 g/10a): 5
- Injury of Paddy ([9]; 6.25 g/10a): 0.5
- Injury of Paddy ([9]; 12.5 g/10a): 0.5
- Herbicidal Effect tamagayatsuri ([10]; 6.25 g/10a): 5
- Herbicidal Effect tamagayatsuri ([10]; 12.5 g/10a): 5
- Herbicidal Effet ichibi ([11]; 4 g/10a): 5
- Herbicidal Effet ichibi ([11]; 8 g/10a): 5
- Herbicidal Effect cockspur ([12]; 40 g/10a): 1
- Herbicidal Effect cockspur ([12]; 80 g/10a): 1
- Herbicidal Effect garden radish ([13]; 40 g/10a): 5
- Herbicidal Effect garden radish ([13]; 80 g/10a): 5
- Herbicidal Effect broad-leaved weed ([14]; 6.25 g/10a): 5
- Herbicidal Effect broad-leaved weed ([14]; 12.5 g/10a): 5

— patent US6337417B1, “N-phenyltetrahydrophthalamic acid derivatives, methods of producing same, and herbicides containing same as effective components” (Central Glass Co., Ltd., priority 1994, dated 2002)
